Test results published in paper PMC9986545, “A novel oral formulation of the melanocortin-1 receptor agonist PL8177 resolves inflammation in preclinical studies of inflammatory bowel disease and is gut restricted in rats, dogs, and humans” (Frontiers in Immunology, 2023).

How the values were obtained:
[1] = tested on: male Wistar rats with DSS-induced colitis; experiment: DSS-induced colitis model in rats; format: in vivo
Protocol: . Groups of 6 male Wistar rats weighing 200 ± 20 g were used. All animals, except those in the sham group, received 5% DSS in the drinking water for 3 days, from day 1 to day 3, which was then changed to normal drinking water for the following 5 days in the study. The rats in the sham group were given drinking water only. […]. Mesalazine, which is approved for the treatment of IBD, including ulcerative colitis and Crohn’s disease, was administered orally as a positive control (300 mg/kg once daily) starting on day 4 through day 7 for a total of 4 consecutive days ( Figure 1 ). Colitis was assessed by disease activity index (diarrhea and rectal bleeding) during the study and by colon length shortening, colon weight gain, and colon histopathologic assessment after organ harvesting on day 8. At termination on day 8, 24 hours after the last dose, colon tissues were harvested, rinsed, photographed, weighed, and their lengths measured, and then cut into 2 halves 7 cm from the anus. One half of the harvested colon tissue was snap-frozen with liquid nitrogen for cytokine measurement (interferon [IFN]-γ, IL-1β, IL-6, and TNF-α). The other half of the colon tissue was further cut into 3 parts 2.5, 5, and 7 cm from the anus, fixed in 10% formalin, and kept in 70% ethanol for histopathology. The colon length and colon-to-body weight ratio was calculated for each animal according to the formula: colon weight (g)/body weight (g) × 100%. Colon tissues from rats (n=6 per treatment group) were drop-fixed in 4% paraformaldehyde embedded in paraffin, and sectioned at 4 µm. For histologic scoring, colon sections were stained with hematoxylin and eosin. For immunohistochemistry, colon sections were processed for antigen retrieval and immunostained with primary antibody: keratin 18 (K18) (1:400, Bioss, bs-5405R) and with a rabbit-specific biotin-conjugated secondary antibody from HistoWiz (HistoWiz, Inc. Brooklyn, NY). Representative images were taken at 10x magnification and quantification was performed using HistoWiz AI technology counting positive cells versus all nuclei, specifically in the crypts. All analyses were performed by blinded individuals.
Histologic criteria for the analysis of colitis included abnormalities of mucosal architecture, extent of inflammation, erosion or ulceration, epithelial regeneration, and the percentage involvement of the disease process. The scoring was based on the findings of independent observers by examining 3 colon sections from each animal. Scoring was from 0 = none to 4 = severe for each item, except for percentage involvement of disease process, which scored from 1 (1%–25%) to 4 (76%–100%). Total scores for colitis (total colitis index) were added, resulting in a combined histologic score range from 0 to 60 ( Table S1 ).
Descriptive statistics were used for assessment of colon damage scores (diarrhea, rectal bleeding, and colon weight gain) (DNBS and DSS rat studies) and for the distribution of PL8177 and main metabolite in the GI tract (Sprague-Dawley rat and dog studies). Mean ± SEM were determined, and 1-way analysis of variance followed by Dunnett’s test was applied for comparison between the vehicle and treated groups. Significance was set at the P<0.05 level.
Table S1.Scoring Table for Calculating Total Colitis Index Score in DSS Colitis –Induced Rats
Abnormalities of mucosal None (Norm al) 0
Minimal for focal, not exceeding laminar propria 1
Mild abnormality, cystic dilation/aberrant crypts 2
Moderate or multifocal abnormalities 3
Severe, entire crypt and epithelium lost 4
Extent of inflammation None 0
Minimal for focal, scatter ed calls (<10 %) 1
Moderate, inflammatory cells extending into the submucosa 3
Severe, transmural leukocytic infiltrate from mucosa to serosa 4
Erosion or ulceration No erosion, ulceration, or granulation tissue 0
Minimal or focal, not exceeding lamina propri a 1
Severe ulceration or granulation tissue 4
Epithelial regression Complete regeneration or normal tissue 0 […]

mice with colitis = tested on: mice with colitis; parameters: method as in PMID 9145424; conditions: twice-daily α-MSH exposure; cited from earlier work
[2] = Mesalazine 300 mg/kg QD oral, days 4-7, day 8, n=6

Row | Compound | % Decrease in Colon Weight vs Vehicle Control ([1]; Mesalazine 300 mg/kg QD oral, days 4-7, day 8) | Mean Colon Length (SEM) [1, 2] | Mean Colon Weight (SEM) [1, 2] | Mean Colon Weight/100 g Body Weight (SEM) [1, 2] | Net Increase (SEM) of colon weight/100 g body weight [1, 2] | Mean Body Weight (SEM) (Day 8) ([1]; Mesalazine 300 mg/kg QD oral, days 4-7, n=6) | Number of K18 positive cells in colon crypts (immunohistochemistry) vs vehicle ([1]; PL8177 (100 µg) or mesalazine, day 8) | Total colitis score (total colitis index), mean [SD] ([1]; mesalazine 300 mg/kg QD oral, histology day 8, n=6, range 0-60) | Reduction in fecal blood (mice with colitis)
1 | Nc1ccc(O)c(C(=O)O)c1 [Mesalazine] | 35% | 18.6 (0.5) cm | 0.570 (0.031) g | 0.235 (0.012) | 0.073 (0.012) | 242.5 (3.0) g | increased number of K18 positive cells, similar to sham | 28.5 [7.71] | 
2 | α-MSH |  |  |  |  |  |  |  |  | 80%
